The values below come from US11572590B2, “Methods for evaluating tumor cell spheroids using 3D microfluidic cell culture device” (Dana-Farber Cancer Institute, Inc., priority 2017, dated 2023).

The term inhibition denotes the relative decrease from the control value, in per cent.

Where two headings read alike, the source gives them in different places.

Holding throughout (assay): SelectScreen Kinase Profiling, single point inhibition and IC50 for off-target kinases
Format in all cases: biochemical

The target of assay [1] is off-target kinases (Homo sapiens, UniProt Q9Y2H1). Particulars: STK38L (NDR2), LanthaScreen Binding. (In general: In TR-FRET formats the signal depends on donor and acceptor labels being close together.)
Sequence of off-target kinases (Homo sapiens, UniProt Q9Y2H1) (Q9Y2H1 whole entry): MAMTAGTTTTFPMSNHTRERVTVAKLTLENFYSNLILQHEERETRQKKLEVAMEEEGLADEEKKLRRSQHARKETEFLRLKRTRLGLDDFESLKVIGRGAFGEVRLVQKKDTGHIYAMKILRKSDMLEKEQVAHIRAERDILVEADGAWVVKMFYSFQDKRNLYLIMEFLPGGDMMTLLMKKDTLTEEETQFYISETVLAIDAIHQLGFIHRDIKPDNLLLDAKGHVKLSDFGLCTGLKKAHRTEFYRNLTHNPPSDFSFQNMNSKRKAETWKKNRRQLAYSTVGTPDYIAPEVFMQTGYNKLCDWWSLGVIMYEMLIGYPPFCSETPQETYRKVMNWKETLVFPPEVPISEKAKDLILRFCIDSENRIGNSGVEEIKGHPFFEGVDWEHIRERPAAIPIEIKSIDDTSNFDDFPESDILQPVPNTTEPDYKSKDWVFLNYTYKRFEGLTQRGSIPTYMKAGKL
Assay [2] addresses off-target kinases (Homo sapiens, UniProt P45983). Particulars: MAPK8 (JNK1).
Assay [3] deals with off-target kinases (Homo sapiens, UniProt P00533, L858R). The note with it: EGFR (ErbB1) L858R (mutant), ZLYTE, ATP Km app.
Sequence of off-target kinases (Homo sapiens, UniProt P00533, L858R) (P00533 25-1210 L858R): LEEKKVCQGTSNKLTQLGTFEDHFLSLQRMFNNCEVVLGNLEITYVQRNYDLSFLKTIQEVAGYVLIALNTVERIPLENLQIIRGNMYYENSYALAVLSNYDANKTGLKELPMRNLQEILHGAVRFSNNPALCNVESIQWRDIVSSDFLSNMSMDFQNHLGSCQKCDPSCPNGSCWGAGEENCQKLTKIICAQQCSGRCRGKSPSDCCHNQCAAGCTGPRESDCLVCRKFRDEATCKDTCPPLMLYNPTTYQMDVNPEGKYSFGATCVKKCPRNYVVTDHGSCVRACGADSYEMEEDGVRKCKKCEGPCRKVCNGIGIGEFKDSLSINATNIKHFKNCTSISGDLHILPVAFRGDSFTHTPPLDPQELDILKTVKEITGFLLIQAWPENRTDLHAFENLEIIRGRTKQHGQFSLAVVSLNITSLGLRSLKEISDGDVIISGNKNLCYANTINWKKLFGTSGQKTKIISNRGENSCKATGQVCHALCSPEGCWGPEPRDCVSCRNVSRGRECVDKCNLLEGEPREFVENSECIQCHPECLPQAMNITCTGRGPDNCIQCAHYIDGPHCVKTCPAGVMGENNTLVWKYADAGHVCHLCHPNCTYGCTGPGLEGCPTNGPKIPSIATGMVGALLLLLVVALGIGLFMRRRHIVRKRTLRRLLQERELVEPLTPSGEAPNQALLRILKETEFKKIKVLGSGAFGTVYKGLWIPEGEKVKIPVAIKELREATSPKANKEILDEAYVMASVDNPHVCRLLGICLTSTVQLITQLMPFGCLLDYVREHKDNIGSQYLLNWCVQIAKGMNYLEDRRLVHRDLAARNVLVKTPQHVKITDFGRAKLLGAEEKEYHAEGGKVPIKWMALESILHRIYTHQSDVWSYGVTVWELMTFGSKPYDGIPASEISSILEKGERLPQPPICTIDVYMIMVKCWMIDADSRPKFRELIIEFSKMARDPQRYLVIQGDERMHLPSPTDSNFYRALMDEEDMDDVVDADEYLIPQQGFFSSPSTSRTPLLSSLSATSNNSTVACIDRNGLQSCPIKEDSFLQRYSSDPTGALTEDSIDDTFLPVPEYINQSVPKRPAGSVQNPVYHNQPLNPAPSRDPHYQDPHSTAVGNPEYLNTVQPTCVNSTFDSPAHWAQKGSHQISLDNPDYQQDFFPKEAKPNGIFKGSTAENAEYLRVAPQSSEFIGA
For assay [4], the target named is T1, off-target kinases (Homo sapiens, UniProt Q16566).
T1 sequence (Q16566 1-473): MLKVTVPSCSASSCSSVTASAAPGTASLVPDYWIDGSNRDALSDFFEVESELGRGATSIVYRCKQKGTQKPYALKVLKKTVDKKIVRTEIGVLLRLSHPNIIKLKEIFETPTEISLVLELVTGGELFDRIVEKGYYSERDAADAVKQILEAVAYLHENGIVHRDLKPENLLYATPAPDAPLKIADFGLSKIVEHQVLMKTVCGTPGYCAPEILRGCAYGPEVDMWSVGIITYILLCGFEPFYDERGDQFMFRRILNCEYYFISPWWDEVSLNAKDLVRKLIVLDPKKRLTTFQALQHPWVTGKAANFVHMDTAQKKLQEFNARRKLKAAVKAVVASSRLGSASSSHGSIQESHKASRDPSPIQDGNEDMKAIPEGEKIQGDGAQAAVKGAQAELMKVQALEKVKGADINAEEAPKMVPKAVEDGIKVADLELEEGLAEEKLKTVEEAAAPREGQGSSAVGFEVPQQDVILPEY

The target of assay [5] is T2, off-target kinases (Homo sapiens, UniProt Q96BR1).
T2 sequence (Q96BR1 1-496): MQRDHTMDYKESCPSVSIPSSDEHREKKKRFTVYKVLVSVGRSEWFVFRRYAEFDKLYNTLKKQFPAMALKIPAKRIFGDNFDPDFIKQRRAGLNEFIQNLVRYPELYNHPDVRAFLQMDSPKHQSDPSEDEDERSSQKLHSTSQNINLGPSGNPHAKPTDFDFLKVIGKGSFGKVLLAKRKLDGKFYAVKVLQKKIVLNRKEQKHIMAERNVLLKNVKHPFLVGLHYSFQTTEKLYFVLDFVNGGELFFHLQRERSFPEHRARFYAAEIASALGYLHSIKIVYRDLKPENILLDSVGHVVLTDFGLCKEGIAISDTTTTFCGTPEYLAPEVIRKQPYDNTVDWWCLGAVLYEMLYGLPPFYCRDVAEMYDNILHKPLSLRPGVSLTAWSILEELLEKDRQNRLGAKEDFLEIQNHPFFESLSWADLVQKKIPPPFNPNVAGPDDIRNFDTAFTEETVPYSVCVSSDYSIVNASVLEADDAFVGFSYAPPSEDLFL
The note with it: SGKL (SGK3), ZLYTE, ATP Km app.

The target of assay [6] is off-target kinases (Homo sapiens, UniProt Q16513). The note with it: PKN2 (PRK2), LanthaScreen Binding.
Sequence of off-target kinases (Homo sapiens, UniProt Q16513) (Q16513 whole entry): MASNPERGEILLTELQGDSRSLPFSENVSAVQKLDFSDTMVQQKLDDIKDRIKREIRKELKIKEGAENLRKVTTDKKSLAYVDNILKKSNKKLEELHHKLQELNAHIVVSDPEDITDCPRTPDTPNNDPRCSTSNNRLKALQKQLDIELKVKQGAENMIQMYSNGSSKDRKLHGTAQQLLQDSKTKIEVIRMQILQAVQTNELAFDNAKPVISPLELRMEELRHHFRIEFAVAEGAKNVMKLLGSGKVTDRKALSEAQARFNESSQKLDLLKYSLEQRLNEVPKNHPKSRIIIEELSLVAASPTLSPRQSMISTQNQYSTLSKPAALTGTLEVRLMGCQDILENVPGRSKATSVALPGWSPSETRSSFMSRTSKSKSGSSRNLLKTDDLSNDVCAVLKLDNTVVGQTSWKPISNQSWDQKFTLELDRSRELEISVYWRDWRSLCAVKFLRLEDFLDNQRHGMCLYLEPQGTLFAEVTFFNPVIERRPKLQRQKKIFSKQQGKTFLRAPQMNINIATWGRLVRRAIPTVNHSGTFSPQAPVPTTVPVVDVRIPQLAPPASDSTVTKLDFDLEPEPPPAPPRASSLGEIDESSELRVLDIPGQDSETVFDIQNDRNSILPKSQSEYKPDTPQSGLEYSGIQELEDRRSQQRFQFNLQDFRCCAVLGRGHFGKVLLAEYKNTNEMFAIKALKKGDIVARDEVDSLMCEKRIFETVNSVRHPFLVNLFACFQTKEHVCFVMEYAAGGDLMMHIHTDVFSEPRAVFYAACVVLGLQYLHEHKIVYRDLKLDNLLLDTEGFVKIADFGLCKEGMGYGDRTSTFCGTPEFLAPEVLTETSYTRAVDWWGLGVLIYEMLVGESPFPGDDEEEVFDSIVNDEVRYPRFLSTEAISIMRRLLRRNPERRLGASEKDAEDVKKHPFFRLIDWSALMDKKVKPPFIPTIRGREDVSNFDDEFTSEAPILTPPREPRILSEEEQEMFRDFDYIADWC
Assay [7] addresses off-target kinases (Homo sapiens, UniProt P41279). Particulars: MAP3K8 (COT), ZLYTE, ATP 100.

Sequence of off-target kinases (Homo sapiens, UniProt P45983) (P45983 whole entry): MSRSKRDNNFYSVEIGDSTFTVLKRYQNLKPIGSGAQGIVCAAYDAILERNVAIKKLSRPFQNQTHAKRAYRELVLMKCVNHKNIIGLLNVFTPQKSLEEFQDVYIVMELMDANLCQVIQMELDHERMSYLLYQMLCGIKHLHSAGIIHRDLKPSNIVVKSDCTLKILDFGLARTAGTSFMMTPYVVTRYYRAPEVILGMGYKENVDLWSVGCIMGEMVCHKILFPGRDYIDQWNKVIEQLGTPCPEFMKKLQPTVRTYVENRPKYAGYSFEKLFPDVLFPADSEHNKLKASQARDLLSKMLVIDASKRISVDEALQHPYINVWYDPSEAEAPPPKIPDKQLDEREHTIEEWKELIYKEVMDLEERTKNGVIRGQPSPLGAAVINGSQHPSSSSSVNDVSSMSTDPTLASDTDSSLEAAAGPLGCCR
Sequence of off-target kinases (Homo sapiens, UniProt P41279) (P41279 whole entry): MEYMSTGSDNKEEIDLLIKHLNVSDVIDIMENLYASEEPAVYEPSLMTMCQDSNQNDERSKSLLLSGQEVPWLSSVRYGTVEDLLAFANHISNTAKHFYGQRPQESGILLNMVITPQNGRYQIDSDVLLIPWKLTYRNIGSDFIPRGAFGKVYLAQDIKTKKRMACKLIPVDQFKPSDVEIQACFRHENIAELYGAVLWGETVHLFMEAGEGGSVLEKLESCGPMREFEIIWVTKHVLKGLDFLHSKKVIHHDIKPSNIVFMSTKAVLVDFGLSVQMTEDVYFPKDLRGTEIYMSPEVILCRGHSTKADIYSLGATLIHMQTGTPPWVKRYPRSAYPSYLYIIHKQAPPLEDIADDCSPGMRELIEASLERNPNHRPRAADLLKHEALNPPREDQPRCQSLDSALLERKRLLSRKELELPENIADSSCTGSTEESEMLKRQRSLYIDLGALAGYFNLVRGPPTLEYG

For `N#Cc1cc(-c2ncnc(Nc3ccc(N4CCN(C5COC5)CC4)cc3)n2)ccc1OC1CCOCC1` [Compound 1, 5-(4-((4-(4-(oxetan-3-yl)piperazin-1-yl)phenyl)amino)-1,3,5-triazin-2-yl)-2-((tetrahydro-2H-pyran-4-yl)oxy)benzonitrile], the inhibition on off-target kinases [1] (read-out: % Inhibition 1) is 30%; at off-target kinases [1] (read-out: % Inhibition 2) it was 38%; on off-target kinases [1] (read-out: % Inhibition Avg), 34%; at off-target kinases [2] (LanthaScreen Binding, read-out: % Inhibition 1), 57%; on off-target kinases [2] (LanthaScreen Binding, read-out: % Inhibition 2), 56%; on off-target kinases [2] (LanthaScreen Binding, read-out: % Inhibition Avg) it was 57%. In addition, the inhibition at off-target kinases [2] (ZLYTE, ATP 100, read-out: % Inhibition 1) turned out to be 33%; on off-target kinases [2] (ZLYTE, ATP 100, read-out: % Inhibition 2) it was 18%; on off-target kinases [2] (ZLYTE, ATP 100, read-out: % Inhibition Avg), 25%; on off-target kinases [3] (read-out: % Inhibition 1), 6%; at off-target kinases [3] (read-out: % Inhibition 2) it was 3%; on off-target kinases [3] (read-out: % Inhibition Avg) it was 4%. The inhibition is -2% on off-target kinases [4] (CAMK4 (CaMKIV), ZLYTE, ATP Km app, read-out: % Inhibition 2); -2% on off-target kinases [4] (CAMK4 (CaMKIV), ZLYTE, ATP Km app, read-out: % Inhibition Avg); -2% at off-target kinases [4] (read-out: % Inhibition 1); 3% at off-target kinases [5] (read-out: % Inhibition 1); 4% at off-target kinases [5] (read-out: % Inhibition 2); 3% on off-target kinases [5] (read-out: % Inhibition Avg). Also, the inhibition at off-target kinases [6] (read-out: % Inhibition 1) is 51%; on off-target kinases [6] (read-out: % Inhibition 2), 52%; at off-target kinases [6] (read-out: % Inhibition Avg), 51%; on off-target kinases [7] (read-out: % Inhibition 1), 19%; on off-target kinases [7] (read-out: % Inhibition 2) it was 11%; on off-target kinases [7] (read-out: % Inhibition Avg) it was 15%.
